Starred links: 1 amine or outer side, 2 acyl side, 3 side chain; linkers in the order of their positions; H or OH if unused. Non-standard residues stand in square brackets, D forms with d. Residues, ends and D or L forms follow the SMILES beside them. Groups on a side chain read outwards from the residue. *: point of attachment. C20 diacid = O=C(O)CCCCCCCCCCCCCCCCCCC(=O)*; γGlu = O=C(O)[C@H](CCC(=O)[*:2])N[*:1]; Aib = CC(C)(N)C(=O)O
Assay: PK measurements for half life assessment in pigs
Format: in vivo, pig
Conditions: male, large white, pig, plasma, sc, single subcutaneous injection, time from tmax to half of Cmax, typically mean of four animals
Procedure: Male large white pigs receive a single subcutaneous injection of the test compound at the start of study (0 hours). Repeated blood samples were taken from the pig over the proceeding 168 hours and plasma separated and stored at −20 to −80° C. Plasma concentration of the test compound was quantified using a radioimmunoassay or mass spectrum analysis. Time taken from tmax to half of Cmax was calculated and represents the half-life (t½) of the compound. Typically, the presented t½ is the mean of four separate animals.

Work on `CC[C@H](C)[C@H](NC(=O)[C@H](Cc1ccccc1)NC(=O)[C@H](CCC(=O)O)NC(=O)[C@H](CCC(N)=O)NC(=O)[C@H](C)NC(=O)[C@H](CCCNC(=N)N)NC(=O)[C@H](CCCCN)NC(=O)[C@H](C)NC(=O)[C@H](CC(=O)O)NC(=O)[C@H](CC(C)C)NC(=O)[C@H](Cc1ccc(O)cc1)NC(=O)[C@H](CCCCN)NC(=O)[C@H](CO)NC(=O)[C@H](Cc1ccc(O)cc1)NC(=O)[C@H](CC(=O)O)NC(=O)[C@H](CO)NC(=O)[C@@H](NC(=O)[C@H](Cc1ccccc1)NC(=O)[C@@H](NC(=O)CNC(=O)[C@H](Cc1c[nH]cn1)NC(=O)C(C)(C)NC(=O)[C@@H](N)Cc1c[nH]cn1)[C@@H](C)O)[C@@H](C)O)C(=O)N[C@@H](CCC(=O)O)C(=O)N[C@@H](Cc1c[nH]c2ccccc12)C(=O)N[C@@H](CC(C)C)C(=O)N[C@@H](CC(C)C)C(=O)N[C@@H](CCC(N)=O)C(=O)N[C@@H](CO)C(=O)N[C@@H](Cc1c[nH]cn1)C(=O)N[C@@H](Cc1c[nH]cn1)C(=O)N[C@@H](CCC(N)=O)C(=O)N[C@@H](CCC(N)=O)C(=O)N[C@@H](Cc1c[nH]cn1)C(=O)N[C@@H](CCC(=O)O)C(=O)N[C@@H](CO)C(=O)N1CCC[C@H]1C(=O)N1CCC[C@H]1C(=O)N1CCC[C@H]1C(=O)N[C@@H](CCCCNC(=O)[C@H](CC(N)=O)NC(=O)CC[C@H](NC(=O)CCCCCCCCCCCCCCCCCCC(=O)O)C(=O)O)C(=O)O` [Example 549] (H-H[Aib]HGTFTSDYSKYLDAKRAQEFIEWLLQSHHQQHESPPPK([Asn-γGlu-C20 diacid])-OH) yielded a half-life of 110 h.
For `CC[C@H](C)[C@H](NC(=O)[C@H](Cc1ccccc1)NC(=O)[C@H](CCC(=O)O)NC(=O)[C@H](CCC(N)=O)NC(=O)[C@H](C)NC(=O)[C@H](CCCNC(=N)N)NC(=O)[C@H](CCCCN)NC(=O)[C@H](C)NC(=O)[C@H](CC(=O)O)NC(=O)[C@H](CC(C)C)NC(=O)[C@H](Cc1ccc(O)cc1)NC(=O)[C@H](CCCCN)NC(=O)[C@H](CO)NC(=O)[C@H](Cc1ccc(O)cc1)NC(=O)[C@H](CC(=O)O)NC(=O)[C@H](CO)NC(=O)[C@@H](NC(=O)[C@H](Cc1ccccc1)NC(=O)[C@@H](NC(=O)CNC(=O)[C@H](Cc1c[nH]cn1)NC(=O)C(C)(C)NC(=O)[C@@H](N)Cc1c[nH]cn1)[C@@H](C)O)[C@@H](C)O)C(=O)N[C@@H](CCC(=O)O)C(=O)N[C@@H](Cc1c[nH]c2ccccc12)C(=O)N[C@@H](CC(C)C)C(=O)N[C@@H](CC(C)C)C(=O)N[C@@H](CCC(N)=O)C(=O)N[C@@H](CO)C(=O)N[C@@H](Cc1c[nH]cn1)C(=O)N[C@@H](CCC(N)=O)C(=O)N[C@@H](CCC(N)=O)C(=O)N[C@@H](Cc1c[nH]cn1)C(=O)N1CCC[C@H]1C(=O)N[C@@H](CO)C(=O)N[C@@H](CO)C(=O)N[C@@H](CO)C(=O)N[C@@H](C)C(=O)N[C@@H](CCCCNC(=O)[C@H](CC(N)=O)NC(=O)CC[C@H](NC(=O)CCCCCCCCCCCCCCCCCCC(=O)O)C(=O)O)C(=O)O` [Example 708] (H-H[Aib]HGTFTSDYSKYLDAKRAQEFIEWLLQSHQQHPSSSAK([Asn-γGlu-C20 diacid])-OH), the half-life was 105 h.
